This note sets out measurements from patent US8748422B2, “Pharmaceutical compositions containing quinazoline derivatives for treating as serotonin receptor antagonist” (Korea Institute of Science and Technology, priority 2007, dated 2014).

This test concerns the target T1, serotonin 5-HT3A receptor (Homo sapiens, UniProt P46098).
T1 sequence (P46098 24-478): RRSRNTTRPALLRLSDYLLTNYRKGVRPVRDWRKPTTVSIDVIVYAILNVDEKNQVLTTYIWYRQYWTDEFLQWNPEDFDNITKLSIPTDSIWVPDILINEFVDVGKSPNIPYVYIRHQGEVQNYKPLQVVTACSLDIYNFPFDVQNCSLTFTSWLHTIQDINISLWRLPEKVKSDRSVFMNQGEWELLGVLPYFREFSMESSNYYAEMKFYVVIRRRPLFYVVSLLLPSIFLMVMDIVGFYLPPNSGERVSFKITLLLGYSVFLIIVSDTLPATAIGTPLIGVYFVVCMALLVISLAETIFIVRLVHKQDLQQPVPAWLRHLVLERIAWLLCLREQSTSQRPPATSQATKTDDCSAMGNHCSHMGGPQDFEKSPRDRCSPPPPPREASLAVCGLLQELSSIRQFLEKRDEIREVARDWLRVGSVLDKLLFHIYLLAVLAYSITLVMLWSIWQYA
The experiment in a line: Assay for 5-HT3A receptor: two-electrode voltage clamp in Xenopus oocytes, inhibition of 5-HT-induced inward current. The class given is cell-based. To be noted: 5-HT3A receptor expressed in Xenopus laevis oocytes; for nH (Hill coefficient) / inhibition: from concentration-response curves; for inhibition / IC50: inward current induced by 5-HT (1 μM); for inhibition: read-out: Vmax (maximum inhibition value); for IC50: test concentrations 0.003-100 μM, read-out: IC50 (50% inhibitory concentration).

As a reminder, the inhibition is the relative decrease from the control value, in per cent. As for `O=C(NCCCN1CCOCC1)c1ccc2c(=O)n(Cc3ccc(Cl)cc3)c(=O)[nH]c2c1` [Compound 16, 3-(4-Chloro-benzyl)-2,4-dioxo-1,2,3,4-tetrahydro-quinazoline-7-carboxylic acid (3-morpholine-4-yl-propyl)-amide], the “nH (Hill coefficient)” value amounted to 5.3 ± 1.5, the inhibition is 52.5 ± 0.6% and the IC50 stood at 1.3 ± 0.1 µM.
The corresponding values for `COc1cccc(Cn2c(=O)[nH]c3cc(C(=O)NCCN4CCCCC4)ccc3c2=O)c1` [Compound 8, 3-(3-Methoxybenzyl)-2,4-dioxo-1,2,3,4-tetrahydro-quinazoline-7-carboxylic acid (2-piperidine-1-yl-ethyl)-amide] are 1.3 ± 0.3, 107 ± 8.5% and 2.7 ± 0.6 µM.
In the same order, the values of `CCCn1c(=O)[nH]c2cc(C(=O)NCCN3CCCCC3)ccc2c1=O` [Compound 11, 2,4-Dioxo-3-propyl-1,2,3,4-tetrahydro-quinazoline-7-carboxylic acid (2-piperidine-1-yl-ethyl)-amide] are 1.3 ± 0.1, 104 ± 3.6% and 2.2 ± 0.2 µM.
`CCC1CCCCN1CCCNC(=O)c1ccc2c(=O)n(Cc3ccc(Cl)cc3)c(=O)[nH]c2c1` (centres unmarked) [Compound 18, 3-(4-Chloro-benzyl)-2,4-dioxo-1,2,3,4-tetrahydro-quinazoline-7-carboxylic acid [3-(2-ethyl-piperidine-1-yl)-propyl]-amide]: the “nH (Hill coefficient)” value is 1.4 ± 0.1, the inhibition was determined as 99.5 ± 1.6% and the IC50 turned out to be 4.8 ± 0.2 µM.
In the same order, the values of `O=C(NCCN1CCCCC1)c1ccc2c(=O)n(Cc3ccccc3F)c(=O)[nH]c2c1` [Compound 4, 3-(2-Fluoro-benzyl)-2,4-dioxo-1,2,3,4-tetrahydro-quinazoline-7-carboxylic acid (2-piperidine-1-yl-ethyl)-amide] are 1.4 ± 0.4, 100 ± 9.6% and 2.1 ± 0.6 µM.
Take `O=C(NCCN1CCCCC1)c1ccc2c(=O)n(Cc3ccc(F)cc3)c(=O)[nH]c2c1` [Compound 6, 3-(4-Fluoro-benzyl)-2,4-dioxo-1,2,3,4-tetrahydro-quinazoline-7-carboxylic acid (2-piperidine-1-yl-ethyl)-amide]: the “nH (Hill coefficient)” value came out at 1.0 ± 0.2, the inhibition was found to be 105 ± 7.5% and the IC50 amounted to 1.9 ± 0.4 µM.
In the same order, the values of `COc1ccc(-n2c(=O)[nH]c3cc(C(=O)NCCN4CCCCC4)ccc3c2=O)cc1` [Compound 3, 3-(4-Methoxy-phenyl)-2,4-dioxo-1,2,3,4-tetrahydro-quinazoline-7-carboxylic acid (2-piperidine-1-yl-ethyl)-amide] are 1.4 ± 0.2, 101 ± 3.6% and 1.6 ± 0.2 µM.
For the molecule `O=C(NCCN1CCCCC1)c1ccc2c(=O)n(Cc3ccccc3Cl)c(=O)[nH]c2c1` [Compound 13, (2-Chloro-benzyl)-2,4-dioxo-1,2,3,4-tetrahydro-quinazoline-7-carboxylic acid (2-piperidine-1-yl-ethyl)-amide], the inhibition worked out at 96 ± 3.9%.
On to `CC1CCCCN1CCNC(=O)c1ccc2c(=O)n(Cc3ccc(Cl)cc3)c(=O)[nH]c2c1` (centres unmarked) [Compound 15, 3-(4-Chloro-benzyl)-2,4-dioxo-1,2,3,4-tetrahydro-quinazoline-7-carboxylic acid (2-(2-methylpiperidine-1-yl)ethyl)-amide], for which the “nH (Hill coefficient)” value was found to be 1.2 ± 0.1, the inhibition was 104 ± 2.5% and the IC50 came out at 2.8 ± 0.2 µM.
On to `O=C(NCCN1CCCC1)c1ccc2c(=O)n(Cc3ccc(Cl)cc3)c(=O)[nH]c2c1` [Compound 1, 3-(4-Chloro-benzyl)-2,4-dioxo-1,2,3,4-tetrahydro-quinazoline-7-carboxylic acid (2-pyrrolidine-1-yl-ethyl)-amide], for which the “nH (Hill coefficient)” value is recorded as 0.9 ± 0.1, the inhibition was found to be 103 ± 12.8% and the IC50 was found to be 7.5 ± 2.5 µM.
The corresponding values for `O=C(NCCN1CCCCC1)c1ccc2c(=O)n(C3CCCCC3)c(=O)[nH]c2c1` [Compound 10, 3-Cyclohexyl-2,4-dioxo-1,2,3,4-tetrahydro-quinazoline-7-carboxylic acid (2-piperidine-1-yl-ethyl)-amide] are 1.1 ± 0.1, 98.8 ± 4.2% and 2 ± 0.3 µM.
In the same order, the values of `COc1ccc(Cn2c(=O)[nH]c3cc(C(=O)NCCN4CCCCC4)ccc3c2=O)cc1` [Compound 9, 3-(4-Methoxybenzyl)-2,4-dioxo-1,2,3,4-tetrahydro-quinazoline-7-carboxylic acid (2-piperidine-1-yl-ethyl)-amide] are 1.7 ± 0.2, 96.4 ± 2.9% and 0.8 ± 0.1 µM.
In the same order, the values of `O=C(NCCCN1CCCCC1)c1ccc2c(=O)n(Cc3ccc(Cl)cc3)c(=O)[nH]c2c1` [Compound 19, 3-(4-Chloro-benzyl)-2,4-dioxo-1,2,3,4-tetrahydro-quinazoline-7-carboxylic acid (3-piperidine-1-yl-propyl)-amide] are 1.5 ± 0.2, 98.2 ± 4.5% and 5.7 ± 0.6 µM.
Consider `O=C(NCCN1CCCCC1)c1ccc2c(=O)n(Cc3ccc(Cl)cc3)c(=O)[nH]c2c1` [Compound 14, 3-(4-Chloro-benzyl)-2,4-dioxo-1,2,3,4-tetrahydro-quinazoline-7-carboxylic acid (2-piperidine-1-yl-ethyl)-amide], for which the “nH (Hill coefficient)” value is on record as 1.2 ± 0.2, the inhibition was 106 ± 2.5% and the IC50 was 3.3 ± 0.5 µM.
The corresponding values for `O=C(NCCN1CCCCC1)c1ccc2c(=O)n(-c3ccc(F)cc3)c(=O)[nH]c2c1` [Compound 2, 3-(4-Fluoro-phenyl)-2,4-dioxo-1,2,3,4-tetrahydro-quinazoline-7-carboxylic acid (2-piperidine-1-yl-ethyl)-amide] are 0.9 ± 0.1, 108 ± 6% and 1.9 ± 0.4 µM.
The corresponding values for `Cn1c(=O)[nH]c2cc(C(=O)NCCN3CCCCC3)ccc2c1=O` [Compound 12, 3-Methyl-2,4-dioxo-1,2,3,4-tetrahydro-quinazoline-7-carboxylic acid (2-piperidine-1-yl-ethyl)-amide] are 1.4 ± 0.1, 103 ± 3.3% and 2.2 ± 0.2 µM.
For the molecule `COc1ccccc1Cn1c(=O)[nH]c2cc(C(=O)NCCN3CCCCC3)ccc2c1=O` [Compound 7, 3-(2-Methoxy-benzyl)-2,4-dioxo-1,2,3,4-tetrahydro-quinazoline-7-carboxylic acid (2-piperidine-1-yl-ethyl)-amide], the “nH (Hill coefficient)” value stood at 1.1 ± 0.2, the inhibition was determined as 103 ± 5.1% and the IC50 came out at 1.4 ± 0.2 µM.
For `CN1[C@@H]2CC[C@H]1C[C@@H](OC(=O)c1cc(Cl)cc(Cl)c1)C2` [MDL72222, reference compound], the “nH (Hill coefficient)” value was 1.25 ± 0.2.
For `O=C(NCCN1CCCCC1)c1ccc2c(=O)n(Cc3cccc(F)c3)c(=O)[nH]c2c1` [Compound 5, 3-(3-Fluoro-benzyl)-2,4-dioxo-1,2,3,4-tetrahydro-quinazoline-7-carboxylic acid (2-piperidine-1-yl-ethyl)-amide], the “nH (Hill coefficient)” value is listed as 1.0 ± 0.2, the inhibition turned out to be 108 ± 11.5% and the IC50 came out at 2.4 ± 0.8 µM.
